Laboratory results: patent US20100261682A1, “Method and Means for the Treatment of Cachexia” (Bioneris AB, priority 2007, published 2010)

Legend:
Format in all cases: in vivo, NMRI mice
[1] = test system: eIF4G.eIF4E complex; test: Western blot after m7GTP-Sepharose extraction: active eIF4G.eIF4E complex; conditions: 40 mg/kg
Description: (§1) Administration of alpha-trinositol. Mice (n=6) bearing the MAC16 tumour were treated with AT (40 mg/kg) s.c., 3 times per day, for 5 days, while a control group received PBS. Protein synthesis and degradation were determined by the incorporation and release of L-[2,6-^3H]phenylalanine, as described in Smith et al., Cancer Res., 2005; 65:277-83. On the fourth day of treatment half of the group administered 0.4 mmol/L L-[2,6-^3H]phenylalanine in PBS (100 μl) by i.p. administration.
(§2) Western blot analysis Gastrocnemius muscle (10 mg) was homogenised in Phosphosafe™ Extraction Reagent (500 μl) and centrifuged at 15000 g for 15 min. Samples of the cytosolic proteins (5 μg) were loaded on either a 10% (mTOR, myosin, eIF4E and eIF4G) 12% (PKR, eIF2α and actin) or 15% (4E-BP1) sodium dodecylsulphate-polyacrylamide gel (SDS-PAGE) and electrophoresed at 180 V for approximately 1 h. The extent of phosphorylation of 4E-BP1, and the association of 4E-BP1 and eIF4G with eIF4E was determined by Western blotting when eIF4E was extracted from the muscle samples by m^7GTP-Sepharose 4B-affinity binding, as previously described Eley ey al., Biochem J., 2007; 407:113-20, by loading 20 μg of protein. […] Blots were scanned by a densitometer to quantify differences.

[2] = test system: caspase 3; test: Caspase 3 activity in gastrocnemius muscle; conditions: 40 mg/kg; still significantly higher than in non-tumour-bearing animals
Description: as §1
Determination of Caspase activity. The activity of caspase 3 was determined by the release of 7-amino-4-methylcoumarin (AMC) from the specific substrate AcDEVD-AMC in the presence or absence of the caspase 3 inhibitor AcDEVD-CHO. […] The supernatant (50 μg protein) was incubated with the caspase 3 substrate for 1 h and the increase in fluorescence due to AMC was determined at an excilation wavelength of 370 nm and an emission wavelength of 430 nm. […] The increase in fluorescence due to the release of 7-amino-4-trifluoro-methylcoumarin (AFC) was measured with an excitation wavelength of 400 nm and an emission of 505 nm.

[3] = test system: cachectic MAC16 mice; test: Body composition of cachectic MAC16 mice after alpha-trinositol treatment (Example 2); conditions: for Body composition: Fat / Body composition: Lean mass / Body composition: Water: mean ± SD
Source text: Animals. Pure strain male NMRI mice (average body weight 25 g) were transplanted with fragments of the MAC16 tumour subcutaneously into the flank by means of a trochar, selected from donor animals with established weight loss (Bibby M C et al., Characterization of transplantable adenocarcinoma in the mouse colon producing cachexia in the recipient animals. J Natl Cancer Inst 78 (1987) 539-546). Transplanted animals were given a rat and mouse breeding diet (Special Diet Services, Witham, UK) and water at lib. Weight loss was evident 10 to 12 days after tumour implantation. Just prior to the development of weight loss 24 animals were randomized into four groups (I-IV) of six animals each.
Administration of alpha-trinositol. A first experiment was started when the animals had lost about 5% of body weight. Aliquots (2.5 μl, Group I; 5 μl, Group II; 10 μl, Group III) of alpha-trinositol stock solution corresponding to doses of 10 mg/kg, 20 mg/kg, and 40 mg/kg for a 25 g animal were administered subcutaneously three times per day at 8.00, 12.00 and 16.00 hrs. The fourth group (Group IV; control) was given an intravenous injection of 10 μl of water. Body weight (FIG. 1), tumour volume (FIG. 2), and water and food intake were determined daily after the last injection.
At the end of the treatment described in Example 1 the mice were sacrificed, and their body composition was analyzed. […] The reduction of lean body mass is normally observed in cachectic patients and is a significant cause of morbidity. No significant change in water content was observed.

[4] = test system: gastrocnemius muscle protein synthesis and degradation; test: Protein synthesis and degradation in gastrocnemius muscle of MAC16 tumour-bearing mice; conditions: 40 mg/kg s.c., 3 times per day; p<0.001 vs control
Description: as §1
Protein analysis. After 24 h the animals were terminated and the gastrocnemius muscle was removed, washed with PBS and RPMI 1640, and the release of radioactivity during incubation for 2 h in RPMI 1640 was determined. Protein bound activity was determined by homogenising the muscles in 2% perchloric acid, and determining the radioactivity in the precipitate. Protein degradation was calculated by dividing the amount of radioactivity released into the medium over a 2 h period by the specific activity of the protein-bound radioactivity. To determine protein synthesis gastrocnemius muscles were incubated for 2 h in RMPI 1640, without phenol red, in the presence of L-[2,6-^3H]phenylalanine (37 MBq), and under an atmosphere of O2/CO2 (19:1). […] The rate of protein synthesis was calculated by dividing the protein-bound radioactivity by the acid-soluble material.

[5] = test system: 4E-BP1 associated with eIF4E; test: Western blot after m7GTP-Sepharose extraction: 4E-BP1 associated with eIF4E; conditions: 40 mg/kg
Description: as §1, §2

[6] = alpha-Trinositol 10 (mg/ml as printed)
[7] = alpha-Trinositol 20 (mg/ml as printed)
[8] = alpha-Trinositol 40 (mg/ml as printed)

O=P(O)(O)O[C@@H]1[C@H](OP(=O)(O)O)[C@H](O)[C@@H](O)[C@H](O)[C@H]1OP(=O)(O)O [alpha-trinositol, 1-D-Myo-inositol 1,2,6-triphosphate]
tumour-induced decrease in formation of the active eIF4G.eIF4E complex [1]: completely attenuated
activity of caspase-3 in gastrocnemius muscle [2]: significantly reduced
absolute fat change from controls [3, 6]: −19 % by weight
absolute lean mass change from controls [3, 6]: +11 % by weight
Body composition: Fat ([3]; alpha-Trinositol 10 (mg/ml as printed), control 6.1 ± 2.1): 4.9 ± 2.3 % by weight
Body composition: Lean mass ([3]; alpha-Trinositol 10 (mg/ml as printed), control 26.1 ± 1.6): 27.1 ± 3.0 % by weight
Body composition: Water ([3]; alpha-Trinositol 10 (mg/ml as printed), control 67.8 ± 1.2): 68.0 ± 2.0 % by weight
absolute fat change from controls [3, 7]: −46 % by weight
absolute lean mass change from controls [3, 7]: +15 % by weight
Body composition: Fat [3, 7]: 3.3 ± 0.5 % by weight
Body composition: Lean mass [3, 7]: 28.6 ± 1.7 % by weight
Body composition: Water [3, 7]: 68.1 ± 1.7 % by weight
absolute fat change from controls [3, 8]: −39 % by weight
absolute lean mass change from controls [3, 8]: +25 % by weight
Body composition: Fat [3, 8]: 3.7 ± 1.9 % by weight
Body composition: Lean mass [3, 8]: 30.7 ± 2.5 % by weight
Body composition: Water [3, 8]: 65.6 ± 1.7 % by weight
decrease in protein degradation in the gastrocnemius muscle [4]: 20%
increase of protein synthesis in the gastrocnemius muscle [4]: 50%
tumour-induced increase of 4E-BP1 associated with eIF4E [5]: completely attenuated
